{
  "source": "paper PMC4980415",
  "about": "(Psychopharmacology, 2016)",
  "key": {"[1]": {"test_system": "Alpha 1 (non-selective), adrenergic", "test": "Off-target binding, General SEP II panel", "conditions": "10 μM ITI-214, mean of n = 2"}, "[2]": {"target": "T1, Potassium channel I[Kr], (hERG) (Homo sapiens, UniProt Q12809)", "T1 construct": "Caliper Life Sciences (contract screen)", "T1 sequence (Q12809 whole entry)": "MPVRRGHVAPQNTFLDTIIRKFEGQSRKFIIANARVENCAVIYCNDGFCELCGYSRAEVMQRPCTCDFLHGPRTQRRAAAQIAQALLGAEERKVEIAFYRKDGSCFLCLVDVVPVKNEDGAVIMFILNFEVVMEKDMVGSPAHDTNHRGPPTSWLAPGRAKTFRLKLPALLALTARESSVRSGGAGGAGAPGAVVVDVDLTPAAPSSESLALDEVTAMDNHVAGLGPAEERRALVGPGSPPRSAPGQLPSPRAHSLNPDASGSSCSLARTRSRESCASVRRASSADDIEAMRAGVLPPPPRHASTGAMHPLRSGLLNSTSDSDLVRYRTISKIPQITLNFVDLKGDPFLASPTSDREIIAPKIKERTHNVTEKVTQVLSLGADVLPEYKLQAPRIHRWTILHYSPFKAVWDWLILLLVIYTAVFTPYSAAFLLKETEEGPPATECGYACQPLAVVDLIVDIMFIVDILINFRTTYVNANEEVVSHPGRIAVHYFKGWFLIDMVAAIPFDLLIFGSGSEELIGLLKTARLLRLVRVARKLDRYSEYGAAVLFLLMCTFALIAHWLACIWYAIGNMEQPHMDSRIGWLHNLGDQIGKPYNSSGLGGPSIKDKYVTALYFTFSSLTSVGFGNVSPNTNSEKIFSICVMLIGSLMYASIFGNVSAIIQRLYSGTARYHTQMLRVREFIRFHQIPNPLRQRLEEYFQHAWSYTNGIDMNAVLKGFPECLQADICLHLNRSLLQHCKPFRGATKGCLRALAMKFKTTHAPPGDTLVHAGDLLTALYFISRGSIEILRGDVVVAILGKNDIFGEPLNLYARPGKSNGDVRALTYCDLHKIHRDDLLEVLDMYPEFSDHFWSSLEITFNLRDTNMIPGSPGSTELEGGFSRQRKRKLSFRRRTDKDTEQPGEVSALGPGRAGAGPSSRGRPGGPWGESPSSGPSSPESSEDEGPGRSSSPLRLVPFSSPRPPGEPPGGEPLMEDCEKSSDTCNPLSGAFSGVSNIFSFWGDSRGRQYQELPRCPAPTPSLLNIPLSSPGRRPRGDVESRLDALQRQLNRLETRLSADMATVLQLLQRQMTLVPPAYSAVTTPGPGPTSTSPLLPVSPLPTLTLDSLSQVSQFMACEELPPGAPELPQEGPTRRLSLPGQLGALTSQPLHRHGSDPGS", "test": "Off-target binding, General SEP II panel", "conditions": "10 μM ITI-214, mean of n = 2"}, "[3]": {"target": "T2, B2 (H), bradykinin (Homo sapiens, UniProt P30411)", "T2 construct": "Caliper Life Sciences (contract screen)", "T2 sequence (P30411 1-391)": "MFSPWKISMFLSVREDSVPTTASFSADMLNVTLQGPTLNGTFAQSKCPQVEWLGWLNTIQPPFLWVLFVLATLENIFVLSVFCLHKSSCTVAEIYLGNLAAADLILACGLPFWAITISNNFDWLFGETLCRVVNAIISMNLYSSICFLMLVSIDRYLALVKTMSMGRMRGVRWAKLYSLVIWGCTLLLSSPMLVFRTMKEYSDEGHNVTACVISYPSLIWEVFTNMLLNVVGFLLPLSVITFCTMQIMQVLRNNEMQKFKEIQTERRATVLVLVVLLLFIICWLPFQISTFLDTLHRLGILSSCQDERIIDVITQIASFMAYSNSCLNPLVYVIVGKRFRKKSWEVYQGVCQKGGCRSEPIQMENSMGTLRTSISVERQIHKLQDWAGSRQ", "test": "Off-target binding, General SEP II panel", "conditions": "10 μM ITI-214, mean of n = 2"}, "[4]": {"test_system": "70 key receptor, enzyme, and ion channel proteins", "test": "70-target diversity panel (SEP II), whole panel", "format": "binding", "conditions": "10 μM, 70-target panel"}, "[5]": {"test_system": "memory acquisition and retrieval in male Wistar rats", "test": "Novel object recognition (NOR): suboptimal doses 2 h before T1 and T2", "format": "in vivo, rat", "description": "(§1) The drug was administered, per os (po), by gavage to rats in a volume of 2 ml/kg body weight. Oral dosing solutions were prepared fresh daily. […] The pH of the dosing solution was adjusted to ~pH 5.5 by dropwise addition of 0.1 N NaOH in saline and volume adjusted by addition of saline in preparation for intraperitoneal (ip) dosing. […] Control treatments were always the vehicle solutions of the corresponding drugs.\nThe object recognition test was performed as described elsewhere (Ennaceur and Delacour [1988]; Akkerman et al. 2014). The apparatus consisted of a circular arena, 83 cm in diameter. Half of the 40-cm-high wall was made of gray polyvinyl chloride, the other half of transparent polyvinyl chloride. The light intensity was equal in the different parts of the apparatus, as fluorescent red tubes provided a constant illumination of about 20 lx on the floor of the apparatus. Two objects were placed in a symmetrical position at about 10 cm from the gray wall. Four different sets of objects were used. The different objects were (1) a cone consisting of a gray polyvinyl chloride base (maximal diameter 18 cm) with a collar on top made of brass (total height 16 cm), (2) a standard 1 L transparent glass bottle (diameter 10 cm, height 22 cm) filled with water, (3) a large metal cube (10.0 × 5.0 × 7.5 cm) with two holes (diameter 1.9 cm), and (4) a large aluminum cube with a tapering top (13.0 × 8.0 × 8.0 cm). The objects used in this study were carefully selected to be “novelty neutral,” that is to say the rats have no innate preference for one over the other. […]\nA testing session consisted of two trials. […] The times spent in exploring each object during T1 and T2 were recorded manually using a personal computer. […]\nThe basic measure recorded was the time spent by each rat exploring an object during T1 and T2. […] The following variables were calculated: e1 = a1 + a2, e2 = a + b, and d2 = (b − a) / e2. […] Differences in exploration times between treatment conditions were analyzed using a t test or one-way ANOVA. […]"}, "[6]": {"test_system": "late memory consolidation in male Wistar rats", "test": "Novel object recognition (NOR): late consolidation, drug 3 h after T1", "format": "in vivo, rat", "conditions": "for Exploration time e1 (T1) / Exploration time e2 (T2): 3 h after T1", "description": "as §1\nThe object recognition test was performed as described elsewhere (Ennaceur and Delacour [1988]; Akkerman et al. 2014). The apparatus consisted of a circular arena, 83 cm in diameter. Half of the 40-cm-high wall was made of gray polyvinyl chloride, the other half of transparent polyvinyl chloride. The light intensity was equal in the different parts of the apparatus, as fluorescent red tubes provided a constant illumination of about 20 lx on the floor of the apparatus. Two objects were placed in a symmetrical position at about 10 cm from the gray wall. Four different sets of objects were used. The different objects were (1) a cone consisting of a gray polyvinyl chloride base (maximal diameter 18 cm) with a collar on top made of brass (total height 16 cm), (2) a standard 1 L transparent glass bottle (diameter 10 cm, height 22 cm) filled with water, (3) a large metal cube (10.0 × 5.0 × 7.5 cm) with two holes (diameter 1.9 cm), and (4) a large aluminum cube with a tapering top (13.0 × 8.0 × 8.0 cm). The objects used in this study were carefully selected to be “novelty neutral,” that is to say the rats have no innate preference for one over the other. In all cases, objects were of sufficient size and weight that rats could not move the objects.\nA testing session consisted of two trials. The duration of each trial was 3 min. During the first trial (T1), the apparatus contained two identical objects (samples). Rats were placed in the apparatus facing the wall at the middle of the front (transparent) segment. After the first exploration period, the rat was put back in its home cage. Subsequently, after a 24-h delay interval, the rat was put in the apparatus for the second trial (T2). The times spent in exploring each object during T1 and T2 were recorded manually using a personal computer.\nExploration was defined as follows: directing the nose to the object at a distance of no more than 2 cm and/or touching the object with the nose. Sitting on the object was not considered as exploratory behavior. In order to avoid the presence of olfactory cues, the objects were always thoroughly cleaned with a 70 % ethanol solution before each trial. All combinations and locations of objects were used in a balanced manner to reduce potential biases due to preferences for particular locations or objects.\nDuring the first 2 weeks after animal arrival, the animals were handled daily. They were then adapted to the procedure over the period of 2 days by allowing them to explore the apparatus (without any objects) for 3 min twice each day. […] After this, the rats were assigned to treatment conditions in a balanced manner, thereby insuring an equal distribution of object combinations among the treatment conditions. […] In all experiments, a 24-h inter-trial interval was used. In all cases, the experimenter was unaware of the treatment conditions that were being tested.\nThe basic measure recorded was the time spent by each rat exploring an object during T1 and T2. The time spent in exploring the two identical samples was represented by “a1” and “a2.” The time spent in T2 in exploring the sample and new object was represented by “a” and “b,” respectively. The following variables were calculated: e1 = a1 + a2, e2 = a + b, and d2 = (b − a) / e2. The e1 and e2 are measures of the total exploration time of both objects during T1 and T2, respectively. Differences in exploration times between treatment conditions were analyzed using a t test or one-way ANOVA. […]"}, "[7]": {"test_system": "conditioned avoidance responding in male Wistar rats", "test": "Conditioned avoidance response (CAR)", "format": "in vivo, rat", "description": "as §1\nAvoidance behavior, escape behavior, escape failures, and inter-trial crosses were recorded, as described here: (1) avoidance (response to CS within 10 s); (2) escape (response to CS + UCS); and (3) escape failure (if the rat was unable to respond to the shock by moving into the opposite compartment within 50 s, the trial was terminated). The inter-trial interval (end of trial to start of new trial) varied randomly between 20 and 40 s. Rats were trained for five consecutive days and adapted to the shuttle box 5 min before each training session. Training sessions consisted of about 20 trials, randomly distributed over 15 min. Only rats that performed at least 90 % avoidance on the last day of training were included in the experiments. All subsequent test sessions were preceded by a pre-test to verify continued performance in the paradigm. Pre-tests and test sessions consisted of approximately ten trials, each randomly distributed over a 7.5-min period. […] Experimental days were always separated by at least two non-experimental days. Experimental tests were separated by at least 2 days to insure drug washout.\nResults from the conditioned avoidance responding (CAR) protocol were analyzed using non-parametric procedures."}, "[8]": {"conditions": "0.3 mg/kg 2 h before T1 and 0.1 mg/kg 2 h before T2, po"}},
  "note": "Where a name gives a salt, the structure may show the parent alone.",
  "data": [
    {"smiles": "CN1C(=O)c2c(nn(Cc3ccc(-c4cccc(F)n4)cc3)c2Nc2ccccc2)N2C1=N[C@@H]1CCC[C@@H]12", "note": "[ITI-214, (6aR,9aS)-2-(4-(6-fluoropyridin-2-yl)benzyl)-5-methyl-3-(phenylamino)-5,6a,7,8,9,9a-hexahydrocyclopenta-[4,5]imidazo[1,2-a]pyrazolo[4,3-e]pyrimidin-4-(2H)-one phosphate salt]", "values": [
      {"measurement": "% Binding", "setting": "[1]", "result": 40.90, "unit": "%"},
      {"measurement": "% Binding", "setting": "[2]", "result": 35.09, "unit": "%"},
      {"measurement": "% Binding", "setting": "[3]", "result": 30.79, "unit": "%"},
      {"measurement": "number of panel targets showing >50 % binding", "setting": "[4]", "result": 4},
      {"measurement": "Exploration time e1 (T1)", "setting": "[5]; [8]", "result": "30.43 (2.16) s"},
      {"measurement": "Exploration time e2 (T2)", "setting": "[5]; [8]", "result": "28.78 (1.26) s"},
      {"measurement": "effect on discrimination behavior (d2), combined sub-effective doses", "setting": "[5]; 0.3 mg/kg 2 h before T1 plus 0.1 mg/kg 2 h before T2, different from chance and vehicle, p < 0.001", "result": "full increase in discrimination behavior"},
      {"measurement": "Exploration time e1 (T1)", "setting": "[6]; 0.1 mg/kg po", "result": "26.20 (1.95) s"},
      {"measurement": "Exploration time e2 (T2)", "setting": "[6]; 0.1 mg/kg po", "result": "32.81 (2.24) s"},
      {"measurement": "Exploration time e1 (T1)", "setting": "[6]; 0.3 mg/kg po", "result": "29.36 (3.22) s"},
      {"measurement": "Exploration time e2 (T2)", "setting": "[6]; 0.3 mg/kg po", "result": "29.64 (2.15) s"},
      {"measurement": "Exploration time e1 (T1)", "setting": "[6]; 1 mg/kg po", "result": "25.93 (1.53) s"},
      {"measurement": "Exploration time e2 (T2)", "setting": "[6]; 1 mg/kg po", "result": "27.86 (2.43) s"},
      {"measurement": "Exploration time e1 (T1)", "setting": "[6]; 3 mg/kg po", "result": "25.62 (1.89) s"},
      {"measurement": "Exploration time e2 (T2)", "setting": "[6]; 3 mg/kg po", "result": "28.34 (2.95) s"},
      {"measurement": "effect on exploratory behavior", "setting": "[6]; early and late consolidation experiments", "result": "no effects on exploratory behavior"},
      {"measurement": "full effective dose (d2 different from chance and from vehicle), late consolidation", "setting": "[6]; po 3 h after T1", "result": 1, "unit": "mg/kg"},
      {"measurement": "effect on percent avoidances", "setting": "[7]; 1 mg/kg po alone", "result": "no significant effect"},
      {"measurement": "effect on number of escape failures", "setting": "[7]; CAR paradigm", "result": "Neither risperidone nor ITI-214 had significant effects"},
      {"measurement": "effect on avoidance behavior of rats given risperidone", "setting": "[7]; ITI-214 1 mg/kg po with risperidone 0.8 mg/kg i.p.", "result": "did not affect avoidance behavior"}
    ]}
  ]
}
